Test results published in patent US9796711B2, “Substituted pyrazolo[3,4-b]pyridin-6-carboxylic acids and method of use” (AbbVie S.àr.l., priority 2015, dated 2017).

What was measured:
[1] = biological target: T1, ΔF508-CFTR (Homo sapiens, UniProt P13569, DEL508-508); experiment: CFTR cell surface levels using HRP-tagged ΔF508-CFTR expressing CFBE cells, intrinsic corrector capacity; format: cell-based; details: HRP-tagged ΔF508-CFTR CFBE41o- cells, compounds alone (intrinsic corrector capacity), 20 hours at 33° C.; for % Activation: positive control 3 μM corrector; for EC50: read-out: EC50
T1 construct: host or cells: CFBE41o-, doxycycline-inducible
T1 sequence (P13569 with tags, fused parts or gaps DEL508-508): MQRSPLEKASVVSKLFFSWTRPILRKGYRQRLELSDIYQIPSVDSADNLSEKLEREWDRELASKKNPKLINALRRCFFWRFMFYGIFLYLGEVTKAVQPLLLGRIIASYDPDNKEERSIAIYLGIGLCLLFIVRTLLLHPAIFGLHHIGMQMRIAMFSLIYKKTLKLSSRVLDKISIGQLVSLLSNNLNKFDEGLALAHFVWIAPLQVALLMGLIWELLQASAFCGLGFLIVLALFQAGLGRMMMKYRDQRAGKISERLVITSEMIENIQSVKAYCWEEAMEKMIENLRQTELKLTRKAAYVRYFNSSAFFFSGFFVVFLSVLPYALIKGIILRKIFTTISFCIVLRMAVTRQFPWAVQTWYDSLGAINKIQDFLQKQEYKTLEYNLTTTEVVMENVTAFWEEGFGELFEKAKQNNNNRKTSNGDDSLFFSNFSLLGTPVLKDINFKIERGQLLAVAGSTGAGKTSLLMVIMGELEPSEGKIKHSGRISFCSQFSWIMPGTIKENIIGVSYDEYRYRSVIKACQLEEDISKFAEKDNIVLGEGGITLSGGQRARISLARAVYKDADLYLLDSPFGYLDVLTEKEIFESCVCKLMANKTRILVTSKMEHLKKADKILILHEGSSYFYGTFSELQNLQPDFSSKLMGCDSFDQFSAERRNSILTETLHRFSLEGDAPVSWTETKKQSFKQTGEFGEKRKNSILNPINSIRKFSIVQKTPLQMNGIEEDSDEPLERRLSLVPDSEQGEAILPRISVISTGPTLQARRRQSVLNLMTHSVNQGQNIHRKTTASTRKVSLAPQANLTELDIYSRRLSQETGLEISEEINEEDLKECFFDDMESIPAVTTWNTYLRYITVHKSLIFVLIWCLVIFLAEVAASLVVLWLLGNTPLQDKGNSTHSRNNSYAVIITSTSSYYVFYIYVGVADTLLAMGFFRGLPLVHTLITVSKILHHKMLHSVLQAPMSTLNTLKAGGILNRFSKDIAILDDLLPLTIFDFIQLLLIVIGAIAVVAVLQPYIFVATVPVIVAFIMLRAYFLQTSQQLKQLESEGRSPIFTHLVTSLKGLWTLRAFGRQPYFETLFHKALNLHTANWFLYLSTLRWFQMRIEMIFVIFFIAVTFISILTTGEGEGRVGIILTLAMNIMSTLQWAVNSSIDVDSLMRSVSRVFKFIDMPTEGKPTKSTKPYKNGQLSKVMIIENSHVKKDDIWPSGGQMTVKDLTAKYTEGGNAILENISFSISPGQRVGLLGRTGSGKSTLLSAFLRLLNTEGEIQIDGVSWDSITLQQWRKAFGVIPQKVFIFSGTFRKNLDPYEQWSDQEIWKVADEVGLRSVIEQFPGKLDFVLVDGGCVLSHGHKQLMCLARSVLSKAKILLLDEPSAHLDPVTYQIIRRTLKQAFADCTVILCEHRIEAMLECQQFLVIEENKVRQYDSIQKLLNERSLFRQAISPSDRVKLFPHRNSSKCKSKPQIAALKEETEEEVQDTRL
Text: Measuring CFTR Cell Surface Levels Using HRP-Tagged AF508-CFTR Expressing CFBE Cells
The HRP-tagged AF508-CFTR cell assay measures the expression of CFTR-ΔF508 at the plasma membrane. CFTR-ΔF508 has a folding defect leading to absence of protein at the plasma membrane. This assay is used to evaluate the capacity of compounds to increase the expression of CFTR-ΔF508 at the plasma membrane. The CFTR-ΔF508 is tagged with HRP (horse radish peroxidase enzyme) within the ECL4 (Extracellular loop 4) of CFTR (Phuan, P.-W. et al. Synergy-based small-molecule screen using a human lung epithelial cell line yields AF508-CFTR correctors that augment VX-809 maximal efficacy. Mol. Pharmacol. 86, 42-51 (2014)). When HRP-tagged AF508-CFTR is present at the plasma membrane, the HRP enzyme activity can be measured. The amount of CFTR-ΔF508 that can be rescued to the plasma membrane is correlated with the amount of functional enzyme that can be measured.
There are several ways to measure the capacity of compounds to rescue CFTR-ΔF508 to the plasma membrane; either compounds are evaluated on their own and the impact on plasma membrane levels is measured or compounds are evaluated in combination with a co-corrector, i.e. a compound that rescues CFTR-ΔF508 to the plasma membrane but rescue can be enhanced by addition of compounds due to a complementary mode of action.
Activity of Compounds for their Intrinsic Corrector Capacity:
For this purpose doxycycline-inducible AF508-CFTR-HRP expressing CFBE4lo-cells (obtained from Gergely Lukacs, McGill University) were maintained in MEM (Gibco; 31095) supplemented with 10% fetal bovine serum (Hyclone; SV30160.03) under puromycin (3 μg/mL) and G418 selection (0.2 mg/mL). For compound testing, cells were seeded at 4000 cells/well in white 384-well plates (Greiner; 781080) in 50 μL medium containing 0.5 μg/mL doxycycline and incubated for 68 hours at 37° C., 5% CO2. On day four, 10 μL test compounds diluted in PBS were added to the plates at a final DMSO concentration of 0.1%. All compound plates contained negative controls (DMSO) and positive controls (3 μM corrector, 3-[(2R,4R)-4-({[1-(2,2-difluoro-1,3-benzodioxol-5-yl)cyclopropyl]carbonyl}amino)-7-methoxy-3,4-dihydro-2H-chromen-2-yl]benzoic acid). Cell plates were incubated at 33° C., 5% CO2 for 20 hours. On day five, the cells were washed five times with phosphate-buffered saline, and HRP activity was assayed by the addition of 50 μL/well of HRP substrate (SuperSignal™ West Pico Chemiluminescent Substrate, Thermo Scientific; 34080). After incubation for 15 minutes in the dark, chemiluminescence was measured using a plate reader (EnVision®, Perkin Elmer). Raw data were normalized to percentage activity values using the equation: 100×(Sample−Negative control)/(Positive control−Negative Control).

[2] = biological target: T1, ΔF508-CFTR; experiment: CFTR cell surface levels using HRP-tagged ΔF508-CFTR expressing CFBE cells, in the presence of a co-corrector; format: cell-based; details: HRP-tagged ΔF508-CFTR expressing CFBE cells, in the presence of 3 μM co-corrector; for EC50: read-out: EC50
Procedure, shortened: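 Cells were seeded with 0.5 μg/mL doxycycline and held 68 h at 37 °C. Test compounds plus 3 μM co-corrector (final 0.1% DMSO) were then added for 20 h at 33 °C. Washed cells received HRP substrate, and luminescence was normalized between DMSO and 3 μM co-corrector controls.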

SMILES | % Activation [1] [%] | EC50 [1] [µM] | % Activation [2] [%] | EC50 [2] [µM]
COc1ccc(-c2cc(C(=O)O)nc3c2c(C)nn3C2CCCC2)cc1 [compound 3, 1-cyclopentyl-4-(4-methoxyphenyl)-3-methyl-1H-pyrazolo[3,4-b]pyridine-6-carboxylic acid] | 46.83 | 3.34 |  | 
COc1ccc(-c2cc(C(=O)O)nc3c2c(C)nn3CCC#N)cc1 [compound 4, 1-(2-cyanoethyl)-4-(4-methoxyphenyl)-3-methyl-1H-pyrazolo[3,4-b]pyridine-6-carboxylic acid] | 3.339 | > 10 |  | 
Cc1nn(-c2cc(C(F)(F)F)[nH]n2)c2nc(C(=O)O)cc(-c3ccc(N4CCOCC4)cc3)c12 [compound 7, 3-methyl-4-[4-(morpholin-4-yl)phenyl]-1-[5-(trifluoromethyl)-1H-pyrazol-3-yl]-1H-pyrazolo[3,4-b]pyridine-6-carboxylic acid] | 5.355 | > 10 |  | 
Cc1nn(-c2ccccc2)c2nc(C(=O)O)cc(-c3ccc(N4CCCCC4)cc3)c12 [compound 8, 3-methyl-1-phenyl-4-[4-(piperidin-1-yl)phenyl]-1H-pyrazolo[3,4-b]pyridine-6-carboxylic acid] | 91.055 | 0.754 |  | 
Cc1nn(-c2ccccc2)c2nc(C(=O)O)cc(-c3ccc(N4CCN(C)CC4)cc3)c12 [compound 9, 3-methyl-4-[4-(4-methylpiperazin-1-yl)phenyl]-1-phenyl-1H-pyrazolo[3,4-b]pyridine-6-carboxylic acid] | 31.76 | 3.34 |  | 
Cc1nn(-c2cc(F)cc(F)c2)c2nc(C(=O)O)cc(-c3ccc(N4CCOCC4)cc3)c12 [compound 10, 1-(3,5-difluorophenyl)-3-methyl-4-[4-(morpholin-4-yl)phenyl]-1H-pyrazolo[3,4-b]pyridine-6-carboxylic acid] | 116.55 | 0.867 |  | 
Cc1nn(-c2cccc(Cl)c2)c2nc(C(=O)O)cc(-c3ccc(N4CCOCC4)cc3)c12 [compound 11, 1-(3-chlorophenyl)-3-methyl-4-[4-(morpholin-4-yl)phenyl]-1H-pyrazolo[3,4-b]pyridine-6-carboxylic acid] | 134.3 | 1.38 |  | 
Cc1nn(-c2ccccc2)c2nc(C(=O)O)cc(-c3ccc(N4CCS(=O)(=O)CC4)cc3)c12 [compound 14, 4-[4-(1,1-dioxo-1λ^6,4-thiazinan-4-yl)phenyl]-3-methyl-1-phenyl-1H-pyrazolo[3,4-b]pyridine-6-carboxylic acid] | 58.56 | 3.34 |  | 
CCOC(=O)c1nn(-c2ccccc2)c2nc(C(=O)O)cc(-c3ccc(N4CCOCC4)cc3)c12 [compound 16, 3-(ethoxycarbonyl)-4-[4-(morpholin-4-yl)phenyl]-1-phenyl-1H-pyrazolo[3,4-b]pyridine-6-carboxylic acid] | 92.93 | 3.34 |  | 
Cc1nn(-c2cccc(Br)c2)c2nc(C(=O)O)cc(-c3ccc(N4CCOCC4)cc3)c12 [compound 18, 1-(3-bromophenyl)-3-methyl-4-[4-(morpholin-4-yl)phenyl]-1H-pyrazolo[3,4-b]pyridine-6-carboxylic acid] | 126.8 | 0.783 |  | 
COc1cccc(-n2nc(C)c3c(-c4ccc(N5CCOCC5)cc4)cc(C(=O)O)nc32)c1 [compound 21, 1-(3-methoxyphenyl)-3-methyl-4-[4-(morpholin-4-yl)phenyl]-1H-pyrazolo[3,4-b]pyridine-6-carboxylic acid] | 103.72 | 1.06 |  | 
CC(C)c1nn(-c2ccccc2)c2nc(C(=O)O)cc(-c3ccc(N4CCCC4)cc3)c12 [compound 24, 1-phenyl-3-(propan-2-yl)-4-[4-(pyrrolidin-1-yl)phenyl]-1H-pyrazolo[3,4-b]pyridine-6-carboxylic acid] | 134.1 | 1.83 |  | 
Cc1nn(-c2ccccc2)c2nc(C(=O)O)cc(-c3ccc(N4CCCC4)cc3)c12 [compound 25, 3-methyl-1-phenyl-4-[4-(pyrrolidin-1-yl)phenyl]-1H-pyrazolo[3,4-b]pyridine-6-carboxylic acid] | 93.1 | 1.5 |  | 
Cc1nn(-c2ccccc2)c2nc(C(=O)O)cc(-c3ccc(C4=CCN(C)CC4)cc3)c12 [compound 27, 3-methyl-4-[4-(1-methyl-1,2,3,6-tetrahydropyridin-4-yl)phenyl]-1-phenyl-1H-pyrazolo[3,4-b]pyridine-6-carboxylic acid] | 41.145 | 6.67 |  | 
Cc1nn(-c2ccccc2)c2nc(C(=O)O)cc(-c3ccc(N4CCC(F)C4)cc3)c12 (centres unmarked) [compound 28, 4-[4-(3-fluoropyrrolidin-1-yl)phenyl]-3-methyl-1-phenyl-1H-pyrazolo[3,4-b]pyridine-6-carboxylic acid] | 129.5 | 1.18 |  | 
O=C(O)c1cc(N2CCC(CCN3CCOCC3)CC2)c2c(C3CCC3)nn(C3CCCCC3)c2n1 [compound 807, 3-cyclobutyl-1-cyclohexyl-4-{4-[2-(morpholin-4-yl)ethyl]piperidin-1-yl}-1H-pyrazolo[3,4-b]pyridine-6-carboxylic acid] |  |  | 389.35 | 0.0725
O=C(O)c1cc(-c2ccc(CN3CCOCC3)cc2)c2c(OC3CCC3)nn(C3CCCCC3)c2n1 [compound 808, 3-(cyclobutyloxy)-1-cyclohexyl-4-{4-[(morpholin-4-yl)methyl]phenyl}-1H-pyrazolo[3,4-b]pyridine-6-carboxylic acid] |  |  | 297 | 0.264
COc1cc(-n2nc(C3CCC3)c3c(N4CCC(N5CCOCC5)CC4)cc(C(=O)O)nc32)ccn1 [compound 816, 3-cyclobutyl-1-(2-methoxypyridin-4-yl)-4-[4-(morpholin-4-yl)piperidin-1-yl]-1H-pyrazolo[3,4-b]pyridine-6-carboxylic acid] |  |  | 359.9 | 0.0676
O=C(O)c1cc(N2CCC(CN3CCOCC3)CC2)c2c(C3CCC3)nn(-c3ccc(F)cc3)c2n1 [compound 821, 3-cyclobutyl-1-(4-fluorophenyl)-4-{4-[(morpholin-4-yl)methyl]piperidin-1-yl}-1H-pyrazolo[3,4-b]pyridine-6-carboxylic acid] |  |  | 545.15 | 0.134
C[C@H]1CN(c2cc(C(=O)O)nc3c2c(C2CCC2)nn3C2CCCCC2)CCN1Cc1ccccc1 [compound 881, 4-[(3S)-4-benzyl-3-methylpiperazin-1-yl]-3-cyclobutyl-1-cyclohexyl-1H-pyrazolo[3,4-b]pyridine-6-carboxylic acid] |  |  | 242.75 | 0.7
C[C@@H]1CN(c2cc(C(=O)O)nc3c2c(C2CCC2)nn3C2CCCCC2)CCN1Cc1ccccc1 [compound 882, 4-[(3R)-4-benzyl-3-methylpiperazin-1-yl]-3-cyclobutyl-1-cyclohexyl-1H-pyrazolo[3,4-b]pyridine-6-carboxylic acid] |  |  | 363.85 | 0.372
O=C(O)c1cc(N2CCC(CN3CCCC3)CC2)c2c(C3CCC3)nn(-c3ccc(F)cc3)c2n1 [compound 888, 3-cyclobutyl-1-(4-fluorophenyl)-4-{4-[(pyrrolidin-1-yl)methyl]piperidin-1-yl}-1H-pyrazolo[3,4-b]pyridine-6-carboxylic acid] |  |  | 430 | 0.333
